This passage reports IC50 results from US11957687B2 (REGENERON PHARMACEUTICALS, INC., priority 2019, dated 2024).

The structures appear in SMILES notation. Where only a bound is given, the exact number is not on record here.

HSD17B13, sequence (Q7Z5P4 other isoform, or with tags, fused parts or gaps): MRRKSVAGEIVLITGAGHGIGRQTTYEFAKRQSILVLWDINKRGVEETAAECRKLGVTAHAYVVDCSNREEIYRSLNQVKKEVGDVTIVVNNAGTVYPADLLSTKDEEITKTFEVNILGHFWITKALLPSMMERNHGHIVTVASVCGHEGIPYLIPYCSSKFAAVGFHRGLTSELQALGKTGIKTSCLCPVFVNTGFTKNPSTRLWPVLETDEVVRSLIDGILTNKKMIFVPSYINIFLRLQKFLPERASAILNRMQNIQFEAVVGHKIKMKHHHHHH

The experiment has as its target HSD17B13 (Homo sapiens (Human), UniProt Q7Z5P4). Briefly: HSD17B13 enzymatic inhibition assay (150 nM or 50 nM HSD17B13). Conditions: 50 nM HSD17B13; read-out: Inhibition of 50 nM of HSD17B13 IC50. The experiment is classed as biochemical.
As a reminder, the IC50 is the concentration at which inhibition is half-maximal. Regarding `Cc1ccc2c(c1)Oc1cccc(C)c1C2NC(=O)c1cc(N2CCOCC2)c(C(F)(F)F)[nH]c1=O` (stereo not drawn) [Compound 439, N-(1,6-dimethyl-9H-xanthen-9-yl)-5-morpholino-2-oxo-6-(trifluoromethyl)-1,2-dihydropyridine-3-carboxamide], the IC50 is 560 nM.

Regarding `COCCOc1ccc2c(c1)Oc1ccccc1C2NC(=O)c1ccc(C(F)(F)F)[nH]c1=O` (stereo not drawn) [Compound 440, N-(3-(2-methoxyethoxy)-9H-xanthen-9-yl)-2-oxo-6-(trifluoromethyl)-1,2-dihydropyridine-3-carboxamide], the IC50 is 700 nM.

Turning to `Cc1ccc(C(NC(=O)c2ccc(C(F)(F)F)[nH]c2=O)c2ccccc2)c(S(C)(=O)=O)c1` (stereo not drawn) [Compound 442, N-((4-methyl-2-(methylsulfonyl)phenyl)(phenyl)methyl)-2-oxo-6-(trifluoromethyl)-1,2-dihydropyridine-3-carboxamide], the IC50 came out at 2560 nM.

`CCc1ccc(C(NC(=O)c2ccc(C(F)(F)F)[nH]c2=O)c2ccc(C)cc2)cc1` (stereo not drawn) [Compound 443, N-((4-ethylphenyl)(p-tolyl)methyl)-2-oxo-6-(trifluoromethyl)-1,2-dihydropyridine-3-carboxamide]: the IC50 turned out to be 120 nM.

In the case of `CCc1cccc(C(NC(=O)c2ccc(C(F)(F)F)[nH]c2=O)c2ccc(C)cc2)c1` (stereo not drawn) [Compound 444, N-((3-ethylphenyl)(p-tolyl)methyl)-2-oxo-6-(trifluoromethyl)-1,2-dihydropyridine-3-carboxamide], the IC50 was found to be 170 nM.

Take `COc1cccc(C(NC(=O)c2ccc(C(F)(F)F)[nH]c2=O)c2ccc(C)cc2)c1` (stereo not drawn) [Compound 446, N-((3-methoxyphenyl)(p-tolyl)methyl)-2-oxo-6-(trifluoromethyl)-1,2-dihydropyridine-3-carboxamide]: the IC50 is 270 nM.

Regarding `COc1ccc(C(NC(=O)c2ccc(C(F)(F)F)[nH]c2=O)c2ccc(C)cc2)cc1` (stereo not drawn) [Compound 447, N-((4-methoxyphenyl)(p-tolyl)methyl)-2-oxo-6-(trifluoromethyl)-1,2-dihydropyridine-3-carboxamide], the IC50 turned out to be 160 nM.

As to `CSc1ccc(C(NC(=O)c2ccc(C(F)(F)F)[nH]c2=O)c2ccc(C)cc2)cc1` (stereo not drawn) [Compound 448, N-((4-(methylthio)phenyl)(p-tolyl)methyl)-2-oxo-6-(trifluoromethyl)-1,2-dihydropyridine-3-carboxamide], the IC50 came to 140 nM.

As to `COc1cc(C)ccc1C(NC(=O)c1ccc(C(F)(F)F)[nH]c1=O)c1ccccc1` (stereo not drawn) [Compound 449, N-((2-methoxy-4-methylphenyl)(phenyl)methyl)-2-oxo-6-(trifluoromethyl)-1,2-dihydropyridine-3-carboxamide], the IC50 was 970 nM.

Regarding `Cc1ccc(C(NC(=O)c2ccc(C(F)(F)F)[nH]c2=O)c2ccccc2S(C)(=O)=O)cc1` (stereo not drawn) [Compound 450, N-((2-(methylsulfonyl)phenyl)(p-tolyl)methyl)-2-oxo-6-(trifluoromethyl)-1,2-dihydropyridine-3-carboxamide], the half-inhibitory concentration (IC50) came to 1100 nM.

As to `COc1c(C)cccc1C(NC(=O)c1ccc(C(F)(F)F)[nH]c1=O)c1ccccc1` (stereo not drawn) [Compound 451, N-((2-methoxy-3-methylphenyl)(phenyl)methyl)-2-oxo-6-(trifluoromethyl)-1,2-dihydropyridine-3-carboxamide], the IC50 was 1960 nM.

For the molecule `Cc1cccc(C(NC(=O)c2ccc(C(F)(F)F)[nH]c2=O)c2ccccc2S(C)(=O)=O)c1` (stereo not drawn) [Compound 452, N-((2-(methylsulfonyl)phenyl)(m-tolyl)methyl)-2-oxo-6-(trifluoromethyl)-1,2-dihydropyridine-3-carboxamide], the IC50 stood at 7030 nM.

Regarding `Cc1cccc(C(NC(=O)c2ccc(C(F)(F)F)[nH]c2=O)c2ccccc2)c1S(C)(=O)=O` (stereo not drawn) [Compound 453, N-((3-methyl-2-(methylsulfonyl)phenyl) (phenyl)methyl)-2-oxo-6-(trifluoromethyl)-1,2-dihydropyridine-3-carboxamide], the IC50 was 3230 nM.

For the molecule `CCc1cccc(C(NC(=O)c2ccc(C(F)(F)F)[nH]c2=O)c2ccccc2OC)c1` (stereo not drawn) [Compound 454, N-((3-ethylphenyl)(2-methoxyphenyl)methyl)-2-oxo-6-(trifluoromethyl)-1,2-dihydropyridine-3-carboxamide], the IC50 is 1810 nM.

As for `CCc1cccc(C(NC(=O)c2ccc(C(F)(F)F)[nH]c2=O)c2ccccc2SC)c1` (stereo not drawn) [Compound 455, N-((3-ethylphenyl)(2-(methylthio)phenyl)methyl)-2-oxo-6-(trifluoromethyl)-1,2-dihydropyridine-3-carboxamide], the half-inhibitory concentration (IC50) stood at 870 nM.

As to `CCc1cccc(C(NC(=O)c2ccc(C(F)(F)F)[nH]c2=O)c2ccccc2S(C)(=O)=O)c1` (stereo not drawn) [Compound 456, N-((3-ethylphenyl)(2-(methylsulfonyl)phenyl)methyl)-2-oxo-6-(trifluoromethyl)-1,2-dihydropyridine-3-carboxamide], the IC50 came to 4830 nM.

Regarding `CCCc1ccc2c(c1)C(NC(=O)c1ccc(C(F)(F)F)[nH]c1=O)c1ccccc1O2` (stereo not drawn) [Compound 457, 2-oxo-N-(2-propyl-9H-xanthen-9-yl)-6-(trifluoromethyl)-1,2-dihydropyridine-3-carboxamide], the IC50 was determined as 120 nM.

`CCCc1ccc2c(c1)C(NC(=O)c1ccc(C(F)(F)F)[nH]c1=O)c1ccccc1S2` (stereo not drawn) [Compound 458, 2-oxo-N-(2-propyl-9H-thioxanthen-9-yl)-6-(trifluoromethyl)-1,2-dihydropyridine-3-carboxamide]: the IC50 is 520 nM.

`Cc1ccc2c(c1)Oc1cc(C)ccc1C2NC(=O)c1ccc(-c2ccccc2)[nH]c1=O` [Compound 459, N-(3,6-dimethyl-9H-xanthen-9-yl)-2-oxo-6-phenyl-1,2-dihydropyridine-3-carboxamide]: the IC50 was over 10000 nM.

Take `Cc1ccc2c(c1)S(=O)(=O)c1cc(C)ccc1C2NC(=O)c1cc(CO)c(C(F)(F)F)[nH]c1=O` [Compound 462, N-(3,6-dimethyl-10,10-dioxido-9H-thioxanthen-9-yl)-5-(hydroxymethyl)-2-oxo-6-(trifluoromethyl)-1,2-dihydropyridine-3-carboxamide]: the IC50 turned out to be 140 nM.

In the case of `Cc1ccc2c(c1)Sc1cc(C)ccc1C2NC(=O)c1cc(CO)c(C(F)(F)F)[nH]c1=O` [Compound 463, N-(3,6-dimethyl-9H-thioxanthen-9-yl)-5-(hydroxymethyl)-2-oxo-6-(trifluoromethyl)-1,2-dihydropyridine-3-carboxamide], the IC50 came out at 50 nM.

Regarding `Cc1ccc2c(c1)Oc1cc(C)ccc1C2NC(=O)c1cc(CO)c(C(F)(F)F)[nH]c1=O` [Compound 464, N-(3,6-dimethyl-9H-xanthen-9-yl)-5-(hydroxymethyl)-2-oxo-6-(trifluoromethyl)-1,2-dihydropyridine-3-carboxamide], the IC50 is 10 nM.

`CCCc1cccc(C(NC(=O)c2ccc(C(F)(F)F)[nH]c2=O)c2ccccc2)c1` (stereo not drawn) [Compound 465, 2-oxo-N-(phenyl(3-propylphenyl)methyl)-6-(trifluoromethyl)-1,2-dihydropyridine-3-carboxamide]: the IC50 is 610 nM.

For `CCc1cccc(C(NC(=O)c2ccc(C(F)(F)F)[nH]c2=O)c2ccccc2)c1` (stereo not drawn) [Compound 466, N-((3-ethylphenyl)(phenyl)methyl)-2-oxo-6-(trifluoromethyl)-1,2-dihydropyridine-3-carboxamide], the IC50 stood at 600 nM.

Take `C=Cc1cccc(C(NC(=O)c2ccc(C(F)(F)F)[nH]c2=O)c2ccccc2)c1` (stereo not drawn) [Compound 467, 2-oxo-N-(phenyl(3-vinylphenyl)methyl)-6-(trifluoromethyl)-1,2-dihydropyridine-3-carboxamide]: the IC50 came to 990 nM.

Turning to `CCc1ccc2c(c1)C(NC(=O)c1ccc(C(F)(F)F)[nH]c1=O)c1ccccc1S2(=O)=O` (stereo not drawn) [Compound 468, N-(2-ethyl-10,10-dioxido-9H-thioxanthen-9-yl)-2-oxo-6-(trifluoromethyl)-1,2-dihydropyridine-3-carboxamide], the IC50 amounted to 190 nM.

As to `CCCc1ccc2c(c1)C(NC(=O)c1ccc(C(F)(F)F)[nH]c1=O)c1ccccc1S2(=O)=O` (stereo not drawn) [Compound 469, N-(10,10-dioxido-2-propyl-9H-thioxanthen-9-yl)-2-oxo-6-(trifluoromethyl)-1,2-dihydropyridine-3-carboxamide], the IC50 stood at 310 nM.

As for `Cc1ccc2c(c1)C(NC(=O)c1ccc(C(F)(F)F)[nH]c1=O)c1ccccc1S2(=O)=O` (stereo not drawn) [Compound 470, N-(2-methyl-10,10-dioxido-9H-thioxanthen-9-yl)-2-oxo-6-(trifluoromethyl)-1,2-dihydropyridine-3-carboxamide], the half-inhibitory concentration (IC50) was determined as 420 nM.

In the case of `C=CCc1ccc2c(c1)C(NC(=O)c1ccc(C(F)(F)F)[nH]c1=O)c1ccccc1O2` (stereo not drawn) [Compound 471, N-(2-allyl-9H-xanthen-9-yl)-2-oxo-6-(trifluoromethyl)-1,2-dihydropyridine-3-carboxamide], the IC50 was found to be 280 nM.

Turning to `O=C(NC1c2ccccc2S(=O)(=O)c2ccc(CC(F)(F)F)cc21)c1ccc(C(F)(F)F)[nH]c1=O` (stereo not drawn) [Compound 472, N-(10,10-dioxido-2-(2,2,2-trifluoroethyl)-9H-thioxanthen-9-yl)-2-oxo-6-(trifluoromethyl)-1,2-dihydropyridine-3-carboxamide], the IC50 came out at 480 nM.

With `Cc1ccc2c(c1)S(=O)(=O)c1cc(C)ccc1C2NC(=O)c1cc(Br)c(C(F)(F)F)[nH]c1=O` [Compound 473, 5-bromo-N-(3,6-dimethyl-10,10-dioxido-9H-thioxanthen-9-yl)-2-oxo-6-(trifluoromethyl)-1,2-dihydropyridine-3-carboxamide], the IC50 turned out to be 30 nM.

For `Cc1ccc2c(c1)S(=O)(=O)c1cc(C)ccc1C2NC(=O)c1cc(C)c(C(F)(F)F)[nH]c1=O` [Compound 474, N-(3,6-dimethyl-10,10-dioxido-9H-thioxanthen-9-yl)-5-methyl-2-oxo-6-(trifluoromethyl)-1,2-dihydropyridine-3-carboxamide], the IC50 came to 30 nM.

Regarding `Cc1ccc2c(c1)S(=O)(=O)c1cc(C)ccc1C2NC(=O)c1ccc(C(F)(F)F)[nH]c1=O` [Compound 475, N-(3,6-dimethyl-10,10-dioxido-9H-thioxanthen-9-yl)-2-oxo-6-(trifluoromethyl)-1,2-dihydropyridine-3-carboxamide], the half-inhibitory concentration (IC50) turned out to be 10 nM.
